{
  "source": "paper doi:10.1101/2025.09.23.678079v1",
  "about": "(biorxiv, 2025)",
  "key": {"HPK1": {"biological_target": "HPK1 (Homo sapiens, UniProt Q92918)", "sequence (Q92918 whole entry)": "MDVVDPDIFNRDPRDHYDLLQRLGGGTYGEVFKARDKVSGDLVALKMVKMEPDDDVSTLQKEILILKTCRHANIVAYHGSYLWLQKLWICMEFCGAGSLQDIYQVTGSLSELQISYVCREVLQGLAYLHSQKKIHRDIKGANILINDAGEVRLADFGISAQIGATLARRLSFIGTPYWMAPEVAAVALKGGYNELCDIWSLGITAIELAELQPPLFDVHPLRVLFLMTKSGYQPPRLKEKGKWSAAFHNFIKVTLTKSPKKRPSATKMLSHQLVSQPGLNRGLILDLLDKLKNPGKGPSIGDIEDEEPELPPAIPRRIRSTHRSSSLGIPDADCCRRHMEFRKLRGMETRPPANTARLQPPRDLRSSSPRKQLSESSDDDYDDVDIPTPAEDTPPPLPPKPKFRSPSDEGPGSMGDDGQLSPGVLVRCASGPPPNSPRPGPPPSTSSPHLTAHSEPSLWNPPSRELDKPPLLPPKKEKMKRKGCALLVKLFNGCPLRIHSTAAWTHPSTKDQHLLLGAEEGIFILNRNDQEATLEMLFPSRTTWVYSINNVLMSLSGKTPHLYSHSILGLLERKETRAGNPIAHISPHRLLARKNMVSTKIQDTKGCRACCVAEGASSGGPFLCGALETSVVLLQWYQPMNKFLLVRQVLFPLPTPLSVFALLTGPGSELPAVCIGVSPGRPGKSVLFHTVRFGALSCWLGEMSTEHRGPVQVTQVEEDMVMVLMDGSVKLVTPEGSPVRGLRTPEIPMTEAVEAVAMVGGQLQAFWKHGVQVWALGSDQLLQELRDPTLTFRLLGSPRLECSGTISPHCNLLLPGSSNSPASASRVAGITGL", "test": "HTRF enzymatic assay", "format": "biochemical"}, "in vitro [1]": {"test": "in vitro", "parameters": "species or system CT26", "conditions": "human, hepg2 cells"}, "in vitro [2]": {"test": "in vitro", "parameters": "species or system HepG2", "conditions": "mouse, ct26 cells"}, "human primary T cells": {"tested_on": "human primary T cells", "test": "cells", "conditions": "T-cell, read-out: IL-2 increase EC50 (nM)"}, "physchem": {"test": "physchem", "conditions": "aqueous buffer, pH 7.4, aqueous buffer"}, "in vitro [3]": {"test": "in vitro", "conditions": "human, hepatocytes"}, "in vitro [4]": {"test": "in vitro", "conditions": "human, Caco-2"}, "in vitro [5]": {"test": "in vitro", "conditions": "mouse, hepatocytes"}, "in vitro [6]": {"test": "in vitro", "conditions": "rat, hepatocytes"}, "in vitro [7]": {"test": "in vitro", "conditions": "dog, hepatocytes"}, "in vitro [8]": {"test": "in vitro", "conditions": "human, plasma"}, "in vitro [9]": {"test": "in vitro", "conditions": "mouse, plasma"}, "in vitro [10]": {"test": "in vitro", "conditions": "rat, plasma"}, "in vitro [11]": {"test": "in vitro", "conditions": "dog, plasma"}, "CYP2C9": {"biological_target": "CYP2C9 (Homo sapiens, UniProt P11712)", "sequence (P11712 whole entry)": "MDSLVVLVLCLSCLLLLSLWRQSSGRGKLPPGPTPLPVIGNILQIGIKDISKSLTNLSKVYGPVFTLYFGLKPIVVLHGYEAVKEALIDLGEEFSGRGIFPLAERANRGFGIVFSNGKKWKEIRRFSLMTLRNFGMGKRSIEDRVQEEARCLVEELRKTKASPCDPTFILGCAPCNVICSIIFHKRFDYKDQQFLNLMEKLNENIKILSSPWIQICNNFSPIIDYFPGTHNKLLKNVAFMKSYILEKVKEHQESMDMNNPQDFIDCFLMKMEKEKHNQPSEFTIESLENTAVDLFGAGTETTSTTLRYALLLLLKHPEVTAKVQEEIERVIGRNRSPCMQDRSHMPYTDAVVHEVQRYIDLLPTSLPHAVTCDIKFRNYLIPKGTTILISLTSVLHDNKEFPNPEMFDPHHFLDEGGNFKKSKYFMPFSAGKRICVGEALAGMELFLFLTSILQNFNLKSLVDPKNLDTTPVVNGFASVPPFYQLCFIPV", "test": "in vitro"}, "CYP2D6": {"biological_target": "CYP2D6 (Homo sapiens, UniProt P10635)", "sequence (P10635 whole entry)": "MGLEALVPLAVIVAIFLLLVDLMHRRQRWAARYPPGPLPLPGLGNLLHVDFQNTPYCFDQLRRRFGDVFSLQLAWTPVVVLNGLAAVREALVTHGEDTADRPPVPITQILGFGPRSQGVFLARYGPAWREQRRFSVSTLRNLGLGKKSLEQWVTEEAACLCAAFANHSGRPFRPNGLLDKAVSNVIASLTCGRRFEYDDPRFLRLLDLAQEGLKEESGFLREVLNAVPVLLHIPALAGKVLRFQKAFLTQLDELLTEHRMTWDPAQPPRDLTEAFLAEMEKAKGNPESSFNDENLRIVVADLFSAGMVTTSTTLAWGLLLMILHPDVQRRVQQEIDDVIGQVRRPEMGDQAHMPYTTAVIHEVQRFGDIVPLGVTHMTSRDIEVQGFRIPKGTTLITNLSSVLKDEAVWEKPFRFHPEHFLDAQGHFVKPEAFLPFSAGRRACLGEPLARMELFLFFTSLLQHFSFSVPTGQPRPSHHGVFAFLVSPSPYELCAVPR", "test": "in vitro"}, "CYP2C19": {"biological_target": "CYP2C19 (Homo sapiens, UniProt P33261)", "sequence (P33261 whole entry)": "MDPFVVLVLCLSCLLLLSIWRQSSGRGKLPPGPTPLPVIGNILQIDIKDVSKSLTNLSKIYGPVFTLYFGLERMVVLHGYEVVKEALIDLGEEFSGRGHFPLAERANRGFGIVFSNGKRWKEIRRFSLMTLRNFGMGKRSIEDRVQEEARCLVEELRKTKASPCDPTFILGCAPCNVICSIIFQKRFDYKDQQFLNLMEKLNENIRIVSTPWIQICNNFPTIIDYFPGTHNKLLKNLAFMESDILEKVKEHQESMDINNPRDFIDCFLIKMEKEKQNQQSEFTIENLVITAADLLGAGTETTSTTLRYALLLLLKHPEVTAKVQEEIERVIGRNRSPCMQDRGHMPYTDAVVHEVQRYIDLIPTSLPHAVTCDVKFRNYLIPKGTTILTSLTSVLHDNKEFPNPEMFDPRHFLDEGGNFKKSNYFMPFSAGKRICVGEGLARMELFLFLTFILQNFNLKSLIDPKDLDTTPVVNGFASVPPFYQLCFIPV", "test": "in vitro"}, "CYP1A2": {"biological_target": "T1, CYP1A2 (Homo sapiens, UniProt P05177)", "T1 sequence (P05177 1-516)": "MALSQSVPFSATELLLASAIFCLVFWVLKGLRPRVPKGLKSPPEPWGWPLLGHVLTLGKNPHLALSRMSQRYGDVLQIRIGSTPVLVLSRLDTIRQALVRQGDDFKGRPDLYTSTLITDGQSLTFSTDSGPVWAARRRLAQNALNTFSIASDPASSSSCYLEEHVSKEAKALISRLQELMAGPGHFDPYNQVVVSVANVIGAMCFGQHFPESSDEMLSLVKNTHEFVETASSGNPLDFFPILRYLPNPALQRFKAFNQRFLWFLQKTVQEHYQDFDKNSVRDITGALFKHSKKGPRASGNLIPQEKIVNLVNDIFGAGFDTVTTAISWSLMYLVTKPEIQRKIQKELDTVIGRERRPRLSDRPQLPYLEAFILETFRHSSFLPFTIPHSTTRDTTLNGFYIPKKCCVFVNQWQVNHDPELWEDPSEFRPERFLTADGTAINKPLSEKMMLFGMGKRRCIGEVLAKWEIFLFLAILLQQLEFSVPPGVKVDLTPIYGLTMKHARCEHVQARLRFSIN", "test": "in vitro"}, "PXR": {"biological_target": "T2, PXR (Homo sapiens, UniProt O75469)", "T2 sequence (O75469 1-434)": "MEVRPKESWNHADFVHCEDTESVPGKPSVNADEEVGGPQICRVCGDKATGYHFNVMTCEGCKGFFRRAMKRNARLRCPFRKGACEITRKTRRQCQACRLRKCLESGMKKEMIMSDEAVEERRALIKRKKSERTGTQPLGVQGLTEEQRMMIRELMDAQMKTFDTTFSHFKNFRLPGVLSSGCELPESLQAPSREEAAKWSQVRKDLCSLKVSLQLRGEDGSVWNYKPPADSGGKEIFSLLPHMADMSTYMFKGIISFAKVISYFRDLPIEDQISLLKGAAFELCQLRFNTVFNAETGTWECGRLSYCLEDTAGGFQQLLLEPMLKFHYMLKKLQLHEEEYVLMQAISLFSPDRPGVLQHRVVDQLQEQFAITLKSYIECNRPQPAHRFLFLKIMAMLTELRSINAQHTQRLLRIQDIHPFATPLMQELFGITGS", "test": "in vitro"}, "hERG [12]": {"biological_target": "T3, hERG (Homo sapiens, UniProt Q12809, species not given)", "T3 sequence (Q12809 whole entry)": "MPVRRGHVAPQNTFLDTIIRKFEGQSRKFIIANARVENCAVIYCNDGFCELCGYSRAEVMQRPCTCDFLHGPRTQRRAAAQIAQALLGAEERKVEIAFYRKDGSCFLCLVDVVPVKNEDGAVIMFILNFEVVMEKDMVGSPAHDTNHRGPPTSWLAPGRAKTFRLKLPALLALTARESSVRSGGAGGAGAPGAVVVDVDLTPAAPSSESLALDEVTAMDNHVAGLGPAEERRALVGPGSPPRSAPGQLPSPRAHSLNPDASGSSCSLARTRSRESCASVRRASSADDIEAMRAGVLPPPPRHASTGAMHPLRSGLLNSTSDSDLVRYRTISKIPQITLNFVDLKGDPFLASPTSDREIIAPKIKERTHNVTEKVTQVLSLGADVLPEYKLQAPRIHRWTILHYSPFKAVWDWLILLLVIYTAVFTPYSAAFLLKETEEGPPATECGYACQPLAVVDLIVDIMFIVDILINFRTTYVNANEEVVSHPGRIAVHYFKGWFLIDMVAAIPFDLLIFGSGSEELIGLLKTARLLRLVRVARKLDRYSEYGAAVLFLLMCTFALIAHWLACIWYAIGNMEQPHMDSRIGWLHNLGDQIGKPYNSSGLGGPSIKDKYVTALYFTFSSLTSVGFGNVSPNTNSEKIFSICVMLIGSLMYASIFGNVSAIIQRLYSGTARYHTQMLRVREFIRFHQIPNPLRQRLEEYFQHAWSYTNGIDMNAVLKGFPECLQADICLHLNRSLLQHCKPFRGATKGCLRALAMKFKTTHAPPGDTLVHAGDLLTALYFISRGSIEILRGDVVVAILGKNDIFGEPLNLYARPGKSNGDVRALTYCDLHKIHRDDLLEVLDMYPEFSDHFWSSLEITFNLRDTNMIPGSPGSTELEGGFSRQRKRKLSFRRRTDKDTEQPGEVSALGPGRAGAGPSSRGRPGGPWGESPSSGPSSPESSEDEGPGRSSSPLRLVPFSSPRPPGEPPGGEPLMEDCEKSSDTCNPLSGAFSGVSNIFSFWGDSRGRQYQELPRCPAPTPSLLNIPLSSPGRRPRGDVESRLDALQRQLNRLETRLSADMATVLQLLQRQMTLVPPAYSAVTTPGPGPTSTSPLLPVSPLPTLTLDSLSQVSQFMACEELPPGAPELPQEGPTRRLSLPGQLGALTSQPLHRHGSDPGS", "test": "in vitro"}, "hERG [13]": {"biological_target": "T3, hERG", "test": "in vitro", "remark": "listed apart in the source"}},
  "data": [
    {"smiles": "COc1cccn2c(-c3cc4c(c5c3CCNC5=O)Nc3ccc(N5CCOCC5)cc3C4(C)C)cnc12", "note": "[compound 3, Cmpd. 3]", "values": [
      {"measurement": "IC50", "setting": "HPK1", "result": 9.3, "unit": "nM"}
    ]},
    {"smiles": "COc1cccn2c(-c3cc4c(c5c3CNC5=O)Nc3ccc(N5CCOCC5)cc3C4(C)C)cnc12", "note": "[compound 4, Cmpd. 4]", "values": [
      {"measurement": "IC50", "setting": "HPK1", "result": 8.9, "unit": "nM"}
    ]},
    {"smiles": "CO[C@H]1CCCn2c(-c3cc4c(c5c3CNC5=O)Nc3ccc(N5CCOCC5)cc3C4(C)C)cnc21", "note": "[compound 6, Cmpd. 6]", "values": [
      {"measurement": "CC50", "setting": "in vitro [1]", "result": 3290, "unit": "nM"},
      {"measurement": "CC50", "setting": "in vitro [2]", "result": 7800, "unit": "nM"},
      {"measurement": "EC50", "setting": "human primary T cells", "result": 9.5, "unit": "nM"},
      {"measurement": "solubility", "setting": "physchem", "result": 56.3, "unit": "µM"},
      {"measurement": "half-life", "setting": "in vitro [3]", "result": 37.7, "unit": "h"},
      {"measurement": "efflux ratio", "setting": "in vitro [4]", "result": 2.72},
      {"measurement": "half-life", "setting": "in vitro [5]", "result": 2.68, "unit": "h"},
      {"measurement": "half-life", "setting": "in vitro [6]", "result": 3.93, "unit": "h"},
      {"measurement": "half-life", "setting": "in vitro [7]", "result": 3.42, "unit": "h"},
      {"measurement": "fraction unbound", "setting": "in vitro [8]", "result": 0.046},
      {"measurement": "fraction unbound", "setting": "in vitro [9]", "result": 0.023},
      {"measurement": "fraction unbound", "setting": "in vitro [10]", "result": 0.0386},
      {"measurement": "fraction unbound", "setting": "in vitro [11]", "result": 0.0112},
      {"measurement": "inhibition at 10 µM", "setting": "CYP2C9", "result": 24.5, "unit": "%"},
      {"measurement": "inhibition at 10 µM", "setting": "CYP2D6", "result": 20.7, "unit": "%"},
      {"measurement": "inhibition at 10 µM", "setting": "CYP2C19", "result": 53.6, "unit": "%"},
      {"measurement": "inhibition at 10 µM", "setting": "CYP1A2", "result": 9, "unit": "%"},
      {"measurement": "activity at 1 µM", "setting": "PXR", "result": 2, "unit": "%"},
      {"measurement": "inhibition at 10 µM", "setting": "hERG [12]", "result": 74.5, "unit": "%"},
      {"measurement": "IC50", "setting": "hERG [13]", "result": 5160, "unit": "nM"}
    ]}
  ]
}
